Assay results published in PMC3366278 (Biomaterials, 2012).
Where a SMILES comes first, the peptide text is derived from it.

Molecular target: T1, recombinant human E-selectin (Homo sapiens, UniProt P16581)
T1 sequence (P16581 22-556 limits assumed): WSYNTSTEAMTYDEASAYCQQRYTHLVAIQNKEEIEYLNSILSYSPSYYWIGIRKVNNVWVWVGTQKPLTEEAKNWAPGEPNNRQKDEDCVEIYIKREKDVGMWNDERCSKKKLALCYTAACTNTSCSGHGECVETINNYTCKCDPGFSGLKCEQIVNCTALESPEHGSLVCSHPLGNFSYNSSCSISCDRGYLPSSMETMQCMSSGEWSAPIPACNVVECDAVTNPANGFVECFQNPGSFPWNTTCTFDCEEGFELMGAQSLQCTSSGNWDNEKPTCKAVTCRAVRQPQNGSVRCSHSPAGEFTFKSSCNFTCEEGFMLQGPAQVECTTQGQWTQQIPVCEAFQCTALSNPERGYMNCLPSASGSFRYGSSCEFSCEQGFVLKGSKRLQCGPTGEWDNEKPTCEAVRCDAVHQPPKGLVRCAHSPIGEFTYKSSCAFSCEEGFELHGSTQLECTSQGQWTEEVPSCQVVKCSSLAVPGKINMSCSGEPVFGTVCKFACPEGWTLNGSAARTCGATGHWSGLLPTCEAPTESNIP
Experiment: Surface plasmon resonance
Format: binding
Settings: SPR, peptide M versus peptide K

CC[C@H](C)[C@H](NC(=O)[C@H](CC(=O)O)NC(=O)[C@H](CO)NC(=O)CNC(=O)[C@@H](N)CS)C(=O)N[C@H](C(=O)N[C@@H](Cc1c[nH]c2ccccc12)C(=O)N[C@@H](CC(=O)O)C(=O)N[C@@H](CCC(N)=O)C(=O)N[C@@H](CC(C)C)C(=O)N[C@@H](Cc1c[nH]c2ccccc12)C(=O)N[C@@H](CC(=O)O)C(=O)N[C@@H](CC(C)C)C(=O)N[C@@H](CCSC)C(=O)O)[C@@H](C)O [Peptide M, CGSDITWDQLWDLM] (H-CGSDITWDQLWDLM-OH)
koff relative to peptide K (times faster): 10 times
